Test results taken from US12398111B2, “Triazine compounds and pharmaceutical use thereof” (Japan Tobacco Inc., priority 2014, dated 2025).

Experiments:
[1] = system: prostaglandins in guinea pig secondary aqueous humor; assay: Effect on prostaglandin composition in guinea pig aqueous humor (instillation of 0.003% ophthalmic solution, LC/MS/MS); format: in vivo, Hartley male guinea pig; conditions: 24 hr after instillation of 0.003% ophthalmic solution
Description: A test article was dissolved in saline containing 0.5% polysorbate80 (Fluka) and 0.003% ophthalmic solution (pH 7.0-8.0) was prepared. The test article was administered to Hartley male guinea pig by instillation of 20 μL thereof to one eye by using a micropipette. After instillation, the lacrimal part was lightly fixed by gently pressing the lower eyelid for about 15 seconds. The opposite eye was treated in the same manner. To the vehicle group was administered the medium (0.5% polysorbate-containing saline) by a method similar to that for the test article. After 23 hr from the instillation, Mydrin P (registered trade mark) 0.5% ophthalmic solution (Santen Pharmaceutical Co., Ltd., general name: tropicamide/phenylephrine hydrochloride) was dropwisely added by one drop to the both eyes of a guinea pig to cause mydriasis. The guinea pig was anesthetized with Escain (registered trade mark) inhalation anesthetics (Pfizer Inc., general name: isoflurane), the cornea of the both eyes was tapped with a 30G injection needle, and the leaked aqueous humor (primary aqueous humor) was collected. One hour later (24 hr after instillation), the guinea pig was anesthetized again with isoflurane, and the secondary aqueous humor was collected in the same manner. The concentration of prostaglandins in the secondary aqueous humor obtained from each group (4 guinea pigs, 8 eyes) was measured by the LC/MS/MS system (Ultra high performance liquid chromatography: Nexera (registered trademark) manufactured by Shimadzu Corporation, mass spectrometer: […]), and the concentration ratio of each prostaglandin concentration relative to the total of all prostaglandin concentrations was calculated.

human mPGES-1 = biological target: T1, human mPGES-1 (Homo sapiens, UniProt O14684); assay: Evaluation of human mPGES-1 enzyme inhibitory activity (PGE2 measured by HTRF, microsome fraction of CHO-S cells expressing human mPGES-1); format: biochemical; conditions: IC50 value; microsome fraction of CHO-S cells expressing human mPGES-1, PGE2 by HTRF
T1 construct: made in house; host or cells: FreeStyle CHO-S cells (Chinese hamster ovary), transient transfection with pcDNA3.1(+)/human mPGES-1; microsome fraction used
T1 sequence (O14684 1-152): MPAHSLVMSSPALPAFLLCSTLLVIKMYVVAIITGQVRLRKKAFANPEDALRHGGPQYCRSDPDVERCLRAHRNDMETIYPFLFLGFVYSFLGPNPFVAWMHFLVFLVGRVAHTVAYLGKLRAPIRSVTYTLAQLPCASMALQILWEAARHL
Procedure, shortened: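 Enzyme source: microsomes from CHO-S cells transfected with human mPGES-1 and cultured 48 hr, diluted to 5 μg/mL protein in reduced GSH (12.5 mmol/L KPB solution). Test articles were in 0.1 mol/L potassium phosphate pH 7.4, final DMSO 2% (v/v). PGE2 formed was quantified by HTRF.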

Row | IC50 (human mPGES-1) | SMILES | 6-keto-PGF1α (%) [1] | PGD2 (%) [1] | PGE2 (%) [1] | PGF2α (%) [1] | TXB2 (%) [1]
1 | 1.7 nM | C[C@@H](Oc1ccc(-c2nc(O)nc(-c3cc(CNC(=O)C(C)(C)C(F)(F)F)ccc3Cl)n2)cc1)C1CC1 [Example 1-185, N-(4-chloro-3-{4-[4-((R)-1-cyclopropylethoxy)phenyl]-6-hydroxy-1,3,5-triazin-2-yl}benzyl)-3,3,3-trifluoro-2,2-dimethylpropionamide] | 25.4% | 12.1% | 50% | 11% | 1.6%
2 | 0.9 nM | CC(C)c1ccc(-c2nc(O)nc(-c3cc(CNC(=O)C(C)(C)C(F)(F)F)ccc3Cl)n2)cc1 [Example 1-98, N-{4-chloro-3-[4-hydroxy-6-(4-isopropylphenyl)-1,3,5-triazin-2-yl]benzyl}-3,3,3-trifluoro-2,2-dimethylpropionamide] | 31.2% | 16.3% | 38% | 14.2% | 0.3%
3 | 0.4 nM | Cc1ccc(-c2nc(O)nc(-c3cc(CNC(=O)C(C)(C)C(F)(F)F)ccc3Cl)n2)cc1C [Example 1-150, N-{4-chloro-3-[4-(3,4-dimethylphenyl)-6-hydroxy-1,3,5-triazin-2-yl]benzyl}-3,3,3-trifluoro-2,2-dimethylpropionamide] | 14% | 8% | 69% | 8.9% | 0.2%
4 | 0.5 nM | CC(C)(C(=O)NCc1ccc(Cl)c(-c2nc(O)nc(-c3ccc(F)c(C4CC4)c3)n2)c1)C(F)(F)F [Example 1-135, N-{4-chloro-3-[4-(3-cyclopropyl-4-fluorophenyl)-6-hydroxy-1,3,5-triazin-2-yl]benzyl}-3,3,3-trifluoro-2,2-dimethylpropionamide] | 19.4% | 10.9% | 56.1% | 12.7% | 0.9%
5 | 3.7 nM | Cc1cccc(COc2cccc(C(F)(F)F)c2-c2nc(O)nc(-c3ccc(C#Cc4ccccc4)cc3)n2)n1.Cl [Example 2-98, 4-[2-(6-methylpyridin-2-ylmethoxy)-6-trifluoromethylphenyl]-6-(4-phenylethynylphenyl)-1,3,5-triazin-2-ol hydrochloride] | 27.3% | 20.1% | 37.8% | 14.8% | 0%
6 | 0.5 nM | CCCOc1ccc(-c2nc(O)nc(-c3cc(CNC(=O)[C@@](C)(OC)C(F)(F)F)ccc3Cl)n2)cc1 [Example 1-137, (R)—N-{4-chloro-3-[4-hydroxy-6-(4-propoxyphenyl)-1,3,5-triazin-2-yl]benzyl}-3,3,3-trifluoro-2-methoxy-2-methylpropionamide] | 24.8% | 14.1% | 49.5% | 11.3% | 0.3%
7 | 0.6 nM | Cc1ccc(-c2nc(O)nc(-c3cc(CNC(=O)C(C)(C)C(F)(F)F)ccc3Cl)n2)cc1Cl [Example 1-129, N-{4-chloro-3-[4-(3-chloro-4-methylphenyl)-6-hydroxy-1,3,5-triazin-2-yl]benzyl}-3,3,3-trifluoro-2,2-dimethylpropionamide] | 18.1% | 9.2% | 62.5% | 10.2% | 0%
8 | 1.9 nM | C[C@H](Oc1ccc(-c2nc(O)nc(-c3cc(CNC(=O)C(C)(C)C(F)(F)F)ccc3Cl)n2)cc1)C1CC1 [Example 1-184, N-(4-chloro-3-{4-[4-((S)-1-cyclopropylethoxy)phenyl]-6-hydroxy-1,3,5-triazin-2-yl}benzyl)-3,3,3-trifluoro-2,2-dimethylpropionamide] | 21.2% | 10.7% | 57% | 10.3% | 0.8%
9 | 2 nM | CC(C(=O)NCc1ccc(Cl)c(-c2nc(O)nc(-c3ccc(OCC4CC4)cc3)n2)c1)(C(F)(F)F)C(F)(F)F [Example 1-169, N-{4-chloro-3-[4-(4-cyclopropylmethoxyphenyl)-6-hydroxy-1,3,5-triazin-2-yl]benzyl}-3,3,3-trifluoro-2-methyl-2-trifluoromethylpropionamide] | 40.3% | 17% | 28.7% | 13.5% | 0.5%

Row | SMILES | IC50 (human mPGES-1) | 6-keto-PGF1α (%) [1] | PGD2 (%) [1] | PGE2 (%) [1] | PGF2α (%) [1] | TXB2 (%) [1]
10 | CCCCOc1ccc(-c2nc(O)nc(-c3cc(CNC(=O)C(C)(C)C(F)(F)F)ccc3Cl)n2)cc1 [Example 1-131, N-{3-[4-(4-butoxyphenyl)-6-hydroxy-1,3,5-triazin-2-yl]-4-chlorobenzyl}-3,3,3-trifluoro-2,2-dimethylpropionamide] | 0.9 nM | 27.9% | 18.8% | 42.9% | 9.8% | 0.6%
11 | CC(C)COc1ccc(-c2nc(O)nc(-c3cc(CNC(=O)C4(C(F)(F)F)CC4)ccc3Cl)n2)cc1 [Example 1-178, 1-trifluoromethylcyclopropanecarboxylic acid 4-chloro-3-[4-hydroxy-6-(4-isobutoxyphenyl)-1,3,5-triazin-2-yl]benzylamide] | 1.4 nM | 36.6% | 20.1% | 30% | 13% | 0.3%
